Data taken from US20090234150A1, “Use of ppar-alpha agonists to treat skeletal muscle wasting disorders” (priority 2006, published 2009).

System: ischemic muscle necrosis
Details: wild type mice, 0.5 g/kg/day by gavage for 10 days prior to femoral artery ligation
Excerpt: To assess the muscle protective effect of the PPAR-alpha agonist fenofibrate, wild type mice received fenofibrate (0.5 g/kg/day; Cayman Chemical, Ann Arbor, Mich., USA) by gavage, or vehicle alone for 10 days prior to femoral artery ligation. Two days after femoral artery ligation muscle necrosis was subsequently analyzed on histological sections of the crural muscles.
Limb ischemia was induced by high unilateral right or bilateral ligation of the femoral artery and vein, and of the cutaneous vessels branching from the caudal femoral artery, sparing the femoral nerve. Crural muscles were dissected and processed for histological analysis 2 d or 7 d after ligation.
The crural muscles were dissected, fixed in 4% PFA, dehydrated, embedded in paraffin, and sectioned at 10 μm thickness. Microscopic analysis was performed with a Zeiss Axioplan 2 imaging microscope, equipped with an Axiocam HrC camera and KS300 morphometry software (Zeiss). Capillary density, fiber size, and the cross-sectional area of viable and necrotic zones were quantified on eight entire sections (each 320 μm apart) of the crural muscles.

CC(C)OC(=O)C(C)(C)Oc1ccc(C(=O)c2ccc(Cl)cc2)cc1 [fenofibrate]
prevention of ischemic muscle necrosis (analysed two days after ligation, versus vehicle): 60%
% necrotic area/total cross-sectional area (crural muscles two days after ligation, n=4, P=0.002 (vehicle 86.3±8.2%)): 34.3±7%
